Test results from patent US20200283498A1, “T CELL RECEPTOR FUSIONS AND CONJUGATES AND METHODS OF USE THEREOF” (Altor Bioscience LLC, priority 2008, published 2020).

Experiments:
YAC-1 target cells = test: Lytic activity of stimulated nude mouse splenocytes (calcein release); format: cell-based; conditions: four days in equivalent molar amounts; YAC-1 targets
[1] = system: p53+/HLA-A2.1+ MDA-MB-231 tumor cells; test: MDA-MB-231 xenograft tumor growth in nude mice; format: in vivo; conditions: compared to PBS; 9 doses i.v.
A375 tumors = test: Tumor infiltration of adoptively transferred splenocytes pre-coated with scTCR/IL-2; format: in vivo, nude mice; conditions: 24 hrs after transfer of pre-coated splenocytes
Experimental: FIG. 28 depicts targeted tumor infiltration of adoptively transferred splenocytes pre-coated with scTCR/IL-2. […] Boxes, interquartile range of distribution (25th-75th percentile); line within box, median; whisker, 5th-[…]. *, P<0.0001; **, P<0.0001. At least three tumors per group and 10 fields per tumor were analyzed.
The activated splenocytes were isolated and incubated with the respective scTCR/IL-2 fusion proteins in vitro to coat the surface of the cells prior to transfer into A375 tumor bearing nude mouse recipients. Tumors were then isolated 24 hrs later and levels of CD45R+NK cells were assessed.

[2] = system: p53-/HLA-A2.1- AsPC1 tumor cells; test: AsPC1 xenograft tumor growth in nude mice; format: in vivo; conditions: 9 doses i.v.
Experimental: (§1) The tumor lines used in this study were MBA-MD-231 (p53+/HLA-A2.1+), PANC1 (p53+/HLA-A2.1+), AsPC1(p53-/HLA-A2.1-) and HT29 (p53+/HLA-A2.1-). […] J. Immunol. 176:3223. Primary tumors derived from these cells were established in nude mice following subcutaneous injection. Mice were then treated as previously described with 264scTCR/IL-2, rhIL-2 or PBS and tumor volumes were measured.

[3] = system: p53+/HLA-A2.1+ PANC1 tumor cells; test: PANC1 xenograft tumor growth in nude mice; format: in vivo; conditions: 9 doses i.v.
Experimental: as §1

[4] = system: p53 (aa 264-272) peptide-loaded T2 cells and CTLL-2 cells; test: Cell-cell conjugation assay (flow cytometry); format: cell-based, human T2 cells, mouse CTLL-2 cells
Experimental: FIG. 20A, FIG. 20B, FIG. 20C, and FIG. 20D depict in vitro conjugation of IL-2 receptor-bearing immune cells with antigen presenting target cells mediated by scTCR/IL-2 fusion protein. T2 cells were loaded with either p53 (aa 264-272) or p53 (aa 149-157) (control) peptides and then labeled with HE. CTLL-2 cells were labeled with calcein AM. Labeled cells were mixed and incubated in the presence or absence of 264scTCR/IL-2 fusion protein and the samples were analyzed by flow cytometry. Assay conditions including loading peptide used and presence or absence of fusion protein are indicated beneath each histogram. Single stained regions are marked 1 and 3 and the double stained cell poplulation is marked 2.
In this experiment, T2 cells pulsed with either the 149 or 264 peptide. CTLL-2 cells were hydrodiethidium (HE) labeled and incubated for 20 minutes at RT with an equal number of calcein-AM labeled T2 cells pulsed with either 50 μg of 149 or 264 peptide. […] In contrast, conjugate formation was not observed with the mixture that included the 149 peptide pulsed T2 cells (B; 0.88%). Cell samples were washed one time before analysis on the flow cytometer.
Samples were analyzed by flow cytometry. […] Thus, the scTCR/IL-2 fusion protein could be useful in a therapeutic approach for bringing together immune effector cells and tumor cells and stimulating immune cell-mediated activity against the tumor.

CD45R+ cells in tumors = test: Immune cell infiltration into tumors (CD45R immunohistochemistry); format: in vivo, nude mice
[5] = system: HT29 (p53+/HLA-A2.1-) tumors; test: HT29 xenograft tumor growth in nude mice; format: in vivo; conditions: not shown
Experimental: as §1

[6] = system: immune cells (splenocytes, lymph nodes, bone marrow); test: In vivo activation of immune cells in A375 tumor-bearing nude mice
Excerpt: FIG. 19A and FIG. 19B depict in vivo activation of immune cells in mice following scTCR/IL-2 treatment. […] Splenocytes were isolated at the indicated times and analyzed by flow cytometry for expression of CD25, CD122 or pan-NK markers. The plots indicate the percentage of CD25, CD122 or pan-NK-positive staining (dark line) compared with splenocyte staining with an isotype control mAb (red line).
The effect of the scTCR/IL-2 fusion proteins on immune cells was also investigated in vivo. […] Changes in IL-2R subunit expression were also assessed in immune cells isolated from the spleens, lymph nodes and bone marrow of 264scTCR/IL-2- or MART-1scTCR/IL-2-treated mice.

[7] = system: human A375 cell line tumors; test: A375 primary tumor growth model in nude mice
[8] = system: human NSCLC A549-A2 tumor cells; test: Adoptive transfer of preincubated NK cells in A549-A2 experimental metastasis model; format: in vivo, athymic nude mice; conditions: CTX 200 mg/kg ip days 14, 21; NK cells preincubated with the protein iv days 16, 22 (CTX group: no NK cells)

## 264scTCR/IL-2: soluble three domain single-chain TCR specific to human p53 (aa 264-272)/HLA-A2.1 linked to human IL-2 via a peptide linker
YAC-1 target cells
  lytic activity of stimulated mouse splenocytes: Equivalent levels of lytic activity
[1]
  tumor growth: significant antitumor effect
A375 tumors
  cells bound with fusion protein infiltrating into tumors: 3.0 BF1+ cells/field of view
  infiltration of CD45R+ cells: 10.3 CD45R+ cells/field of view
[2]
  tumor growth: tumor outgrowth was not inhibited
[3]
  tumor growth: significant antitumor effects
[4]; 149 control peptide-loaded T2 cells + CTLL-2 cells, fusion protein present (or fusion protein absent)
  conjugated (double stained) cells, share of total population: approximately 0.9%
[4]; 149 control peptide-loaded T2 cells + CTLL-2 cells, fusion protein present (or fusion protein absent), listed as 264 scTCR-IL-2
  conjugated (double stained) cells, share of total population: 0.88%
[4]; 264 peptide-loaded T2 cells + CTLL-2 cells, fusion protein present (1 μg)
  conjugated (double stained) cells, share of total population: 3.25%
CD45R+ cells in tumors; A375 (p53+/HLA.A2.1+) tumor sections
  CD45R-positive cells in A375 tumors: Complete tumor infiltration of large CD45R+ cells
CD45R+ cells in tumors; A375 tumors, 10 μg/dose, four days of daily treatment
  CD45R+ cell infiltration: 14.5 CD45R+ cells/field of view
CD45R+ cells in tumors; AsPC1 (p53-/HLA-A2.1-) tumor sections
  CD45R-positive cells in AsPC1 tumors: no differences were observed between treatment groups
[5]
  tumor growth: tumor outgrowth was not inhibited
[6]; repeated administration
  NK cells: treatment-dependent increase in NK cells
[6]; repeated daily i.v. 32 μg/dose
  lymph nodes and spleens: enlargement of lymph nodes and spleens
  serum IFN-γ levels: increase in serum IFN-γ levels
[6]; repeated daily treatment
  expression of CD122 and CD25 in cells from lymph nodes and bone marrow: Elevated expression
[6]; repeated daily treatments, peak one day after fourth treatment
  Splenocytes expressing IL-2Rα (CD25) or IL-2≈ (CD122): increased approximately three-fold
[7]; 3 μg dose, 9 doses
  mice that developed tumors: all of the mice developed tumors
[7]; 3 μg dose, 9 doses, vs PBS
  average tumor size: significantly smaller than that of the PBS treated mice
[7]; 0.5 mg/kg i.v., four daily injections, 10-day rest, four more
  A375 tumor growth compared to PBS: potent antitumor activity
[7]; 0.5 mg/kg/dose, 9 doses
  mice that developed tumors: six of the eight
[7]; 1.6 mg/kg and 0.5 mg/kg doses vs rhIL-2 0.4 mg/kg
  tumor weight at the end of the study: significantly more effective at reducing tumor burden than the high dose of rhIL-2
[7]; 1.6 mg/kg i.v., 9 doses, tumors established three days
  mice that developed tumors: 50%
[7]; 1.6 mg/kg/dose, 9 doses
  mice that developed tumors: four of the eight
[7]; 0.5 or 0.2 mg/kg, four daily injections, 10-day rest, four more, compared with 0.125 mg/kg rhIL-2
  tumor growth: significantly inhibited tumor growth
[7]; 264scTCR/IL-2 0.5 mg/kg daily x4 per cycle, rhIL-2 0.4 mg/kg every 8 hrs for five days per cycle
  tumor growth following two dosing cycles: inhibited tumor growth to a similar degree
[7]; tumors grown to 75 or 200 mm^3, 9 doses i.v.
  growth of well-established tumors: marked inhibition of tumor growth and partial to complete regression of tumors in most mice

## O=P1(N(CCCl)CCCl)NCCCO1 (centres unmarked) [CTX, cyclophosphamide, reference compound]
[8]
  Median survival: 52 days
